In brackets after ≈: the same amount, converted by molar mass.
Legend:
[1] = tested on: Staphylococcus aureus; test: Antibacterial activity against Staphylococcus aureus ATCC 4330 assessed as inhibition of bacterial growth measured after 16 to 24 hrs by CLSI based broth dilution method; assay type: functional; conditions: time 16-24 hrs
[2] = tested on: Clostridioides difficile; test: Antibacterial activity against Clostridioides difficile ATCC 43255 assessed as inhibition of bacterial growth measured after 24 hrs by CLSI based broth dilution method; assay type: functional
[3] = Aqueous kinetic solubility of the compound at pH 7.4 incubated for 2 hrs by UPLC-MS analysis; assay type: physicochemical; conditions: read-out: Kinetic_solubility

Structure (SMILES)	MIC [1] [µg/mL]	MIC [2] [µg/mL]	solubility kinetic at 2 h [3] [µg/mL]
C/C=C1\NC(=O)[C@H]([C@@H](C)O)NC(=O)c2csc(n2)-c2ccc(-c3nc(-c4nc(C(=O)NC5(C(=O)NCCCN6CCN(C(C)C)CC6)CC5)cs4)cs3)nc2-c2csc(n2)[C@H]([C@@H](C)O)NC(=O)c2csc(n2)[C@H](C(C)C)NC(=O)c2csc1n2.Cl			2.8
C/C=C(\NC(=O)c1csc(-c2csc(-c3ccc4c(n3)-c3csc(n3)[C@H]([C@@H](C)O)NC(=O)c3csc(n3)[C@H](C(C)C)NC(=O)c3csc(n3)/C(=C/C)NC(=O)[C@H]([C@@H](C)O)NC(=O)c3csc-4n3)n2)n1)C(=O)NCCn1cc([N+](=O)[O-])nc1C	1 (≈ 0.807 µM)	0.25 (≈ 0.202 µM)	
C/C=C1\NC(=O)[C@H]([C@@H](C)O)NC(=O)c2csc(n2)-c2ccc(-c3nc(-c4nc(C(=O)NC5(C(=O)NCCn6cc([N+](=O)[O-])nc6C)CC5)cs4)cs3)nc2-c2csc(n2)[C@H]([C@@H](C)O)NC(=O)c2csc(n2)[C@H](C(C)C)NC(=O)c2csc1n2	1 (≈ 0.807 µM)	0.5 (≈ 0.403 µM)	
C/C=C(\NC(=O)c1csc(-c2csc(-c3ccc4c(n3)-c3csc(n3)[C@H]([C@@H](C)O)NC(=O)c3csc(n3)[C@H](C(C)C)NC(=O)c3csc(n3)/C(=C/C)NC(=O)[C@H]([C@@H](C)O)NC(=O)c3csc-4n3)n2)n1)C(=O)NCCN1CCOCC1	1 (≈ 0.834 µM)	1 (≈ 0.834 µM)	

More lines, in order of falling MIC [1], values ahead:

MIC [1] [µg/mL]	MIC [2] [µg/mL]	solubility kinetic at 2 h [3] [µg/mL]	Structure (SMILES)
1 (≈ 0.825 µM)	> 16		C/C=C1\NC(=O)[C@H]([C@@H](C)O)NC(=O)c2csc(n2)-c2ccc(-c3nc(-c4nc(C(=O)NC5(C(=O)NCCN6C(=O)CNC6=O)CC5)cs4)cs3)nc2-c2csc(n2)[C@H]([C@@H](C)O)NC(=O)c2csc(n2)[C@H](C(C)C)NC(=O)c2csc1n2
1 (≈ 0.816 µM)	0.5 (≈ 0.408 µM)		C/C=C1\NC(=O)[C@H]([C@@H](C)O)NC(=O)c2csc(n2)-c2ccc(-c3nc(-c4nc(C(=O)NC5(C(=O)NCCn6ccnc6[N+](=O)[O-])CC5)cs4)cs3)nc2-c2csc(n2)[C@H]([C@@H](C)O)NC(=O)c2csc(n2)[C@H](C(C)C)NC(=O)c2csc1n2
1 (≈ 0.824 µM)	0.5 (≈ 0.412 µM)		C/C=C(\NC(=O)c1csc(-c2csc(-c3ccc4c(n3)-c3csc(n3)[C@H]([C@@H](C)O)NC(=O)c3csc(n3)[C@H](C(C)C)NC(=O)c3csc(n3)/C(=C/C)NC(=O)[C@H]([C@@H](C)O)NC(=O)c3csc-4n3)n2)n1)C(=O)NCCCN1CCOCC1
1 (≈ 0.834 µM)	2 (≈ 1.67 µM)		C/C=C1\NC(=O)[C@H]([C@@H](C)O)NC(=O)c2csc(n2)-c2ccc(-c3nc(-c4nc(C(=O)NC5(C(=O)NCCN6CCOCC6)CC5)cs4)cs3)nc2-c2csc(n2)[C@H]([C@@H](C)O)NC(=O)c2csc(n2)[C@H](C(C)C)NC(=O)c2csc1n2
1 (≈ 0.797 µM)	1 (≈ 0.797 µM)	120 (≈ 95.6 µM)	C/C=C1\NC(=O)[C@H]([C@@H](C)O)NC(=O)c2csc(n2)-c2ccc(-c3nc(-c4nc(C(=O)NC5(C(=O)NCCCN6CCN(C(C)C)CC6)CC5)cs4)cs3)nc2-c2csc(n2)[C@H]([C@@H](C)O)NC(=O)c2csc(n2)[C@H](C(C)C)NC(=O)c2csc1n2

From ChEMBL document CHEMBL5370604, “Identification of Micrococcin P2-Derivatives as Antibiotic Candidates against Two Gram-Positive Pathogens” (J Med Chem, 2023)
